Test results as given in ChEMBL document CHEMBL5291721, “A preclinical secondary pharmacology resource illuminates target-adverse drug reaction associations of marketed drugs” (Nat Commun, 2023).

What was measured:
Endothelin-1 receptor = target: T1, Endothelin-1 receptor (Homo sapiens, UniProt P25101)
T1 sequence (P25101 whole entry): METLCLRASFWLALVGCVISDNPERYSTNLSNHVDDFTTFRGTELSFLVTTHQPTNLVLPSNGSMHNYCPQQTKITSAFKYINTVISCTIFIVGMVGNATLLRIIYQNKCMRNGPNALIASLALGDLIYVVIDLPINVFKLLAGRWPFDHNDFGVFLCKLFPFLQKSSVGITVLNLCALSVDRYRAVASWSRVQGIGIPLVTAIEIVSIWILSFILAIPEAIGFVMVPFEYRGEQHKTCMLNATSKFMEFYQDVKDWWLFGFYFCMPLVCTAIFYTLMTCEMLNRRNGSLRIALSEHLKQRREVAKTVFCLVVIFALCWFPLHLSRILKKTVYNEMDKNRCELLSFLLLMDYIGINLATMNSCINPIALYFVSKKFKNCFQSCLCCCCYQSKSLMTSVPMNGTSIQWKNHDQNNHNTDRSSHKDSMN

[1] = target: Gamma-aminobutyric acid receptor subunit alpha-1 (Rattus norvegicus, UniProt P62813); assay type: functional
Sequence of Gamma-aminobutyric acid receptor subunit alpha-1 (P62813 whole entry): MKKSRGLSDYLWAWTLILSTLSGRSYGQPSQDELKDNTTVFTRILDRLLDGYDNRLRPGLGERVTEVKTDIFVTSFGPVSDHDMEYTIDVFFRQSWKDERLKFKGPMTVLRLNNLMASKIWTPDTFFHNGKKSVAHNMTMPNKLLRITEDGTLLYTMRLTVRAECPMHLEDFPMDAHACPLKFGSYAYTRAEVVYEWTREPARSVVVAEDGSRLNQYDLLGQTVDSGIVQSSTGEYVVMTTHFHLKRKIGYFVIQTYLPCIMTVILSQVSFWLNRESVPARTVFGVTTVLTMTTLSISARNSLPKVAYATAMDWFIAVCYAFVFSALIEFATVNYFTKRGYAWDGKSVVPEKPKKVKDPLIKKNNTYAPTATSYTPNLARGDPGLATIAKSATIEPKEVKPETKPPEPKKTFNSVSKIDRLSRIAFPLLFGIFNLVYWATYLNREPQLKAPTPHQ

[2] = target: Delta-type opioid receptor (Homo sapiens, UniProt P41143)
Sequence of Delta-type opioid receptor (P41143 whole entry): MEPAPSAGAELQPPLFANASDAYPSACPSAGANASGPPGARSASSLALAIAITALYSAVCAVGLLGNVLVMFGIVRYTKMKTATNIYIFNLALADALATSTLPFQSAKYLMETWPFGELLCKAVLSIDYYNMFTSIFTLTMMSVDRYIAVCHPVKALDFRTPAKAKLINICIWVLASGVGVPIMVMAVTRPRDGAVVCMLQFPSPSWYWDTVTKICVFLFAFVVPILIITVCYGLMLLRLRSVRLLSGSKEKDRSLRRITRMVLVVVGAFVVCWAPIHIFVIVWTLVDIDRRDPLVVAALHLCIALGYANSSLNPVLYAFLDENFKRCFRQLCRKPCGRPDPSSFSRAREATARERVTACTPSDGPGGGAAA

Cannabinoid receptor 1 = Cannabinoid receptor 1 (Homo sapiens, UniProt P21554); assay type: functional, cell-based
Sequence of Cannabinoid receptor 1 (P21554 whole entry): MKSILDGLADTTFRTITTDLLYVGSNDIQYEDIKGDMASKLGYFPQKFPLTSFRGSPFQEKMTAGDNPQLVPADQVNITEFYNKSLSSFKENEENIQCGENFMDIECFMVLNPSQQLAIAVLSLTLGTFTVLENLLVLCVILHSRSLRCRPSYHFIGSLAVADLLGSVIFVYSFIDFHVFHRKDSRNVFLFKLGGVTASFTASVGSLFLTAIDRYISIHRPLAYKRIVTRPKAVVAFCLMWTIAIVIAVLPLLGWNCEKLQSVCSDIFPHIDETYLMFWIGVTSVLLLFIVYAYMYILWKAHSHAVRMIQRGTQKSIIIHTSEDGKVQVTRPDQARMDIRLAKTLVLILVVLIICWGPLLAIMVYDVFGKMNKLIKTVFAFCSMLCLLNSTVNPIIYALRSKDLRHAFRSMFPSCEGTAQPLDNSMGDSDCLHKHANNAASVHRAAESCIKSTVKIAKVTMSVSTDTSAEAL

[3] = target: Sodium-dependent dopamine transporter (Homo sapiens, UniProt Q01959)
Sequence of Sodium-dependent dopamine transporter (Q01959 whole entry): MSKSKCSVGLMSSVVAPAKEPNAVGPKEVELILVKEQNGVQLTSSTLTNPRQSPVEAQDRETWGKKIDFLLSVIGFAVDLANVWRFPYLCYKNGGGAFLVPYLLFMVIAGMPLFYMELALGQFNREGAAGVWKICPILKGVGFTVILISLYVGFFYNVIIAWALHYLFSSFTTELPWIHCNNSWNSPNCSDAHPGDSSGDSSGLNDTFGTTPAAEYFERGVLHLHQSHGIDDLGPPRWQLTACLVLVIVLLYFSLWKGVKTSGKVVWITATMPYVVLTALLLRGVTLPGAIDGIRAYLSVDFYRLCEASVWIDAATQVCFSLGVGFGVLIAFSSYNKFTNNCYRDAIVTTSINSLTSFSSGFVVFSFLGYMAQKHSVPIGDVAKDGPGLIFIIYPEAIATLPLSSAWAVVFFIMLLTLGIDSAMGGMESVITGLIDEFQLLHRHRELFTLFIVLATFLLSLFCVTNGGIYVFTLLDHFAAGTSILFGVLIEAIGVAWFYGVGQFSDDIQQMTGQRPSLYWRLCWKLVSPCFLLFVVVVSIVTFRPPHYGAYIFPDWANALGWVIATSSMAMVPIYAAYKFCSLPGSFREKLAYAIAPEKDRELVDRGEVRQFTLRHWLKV

[4] = target: 5-hydroxytryptamine receptor 2B (Homo sapiens, UniProt P41595); assay type: functional, cell-based
Sequence of 5-hydroxytryptamine receptor 2B (P41595 whole entry): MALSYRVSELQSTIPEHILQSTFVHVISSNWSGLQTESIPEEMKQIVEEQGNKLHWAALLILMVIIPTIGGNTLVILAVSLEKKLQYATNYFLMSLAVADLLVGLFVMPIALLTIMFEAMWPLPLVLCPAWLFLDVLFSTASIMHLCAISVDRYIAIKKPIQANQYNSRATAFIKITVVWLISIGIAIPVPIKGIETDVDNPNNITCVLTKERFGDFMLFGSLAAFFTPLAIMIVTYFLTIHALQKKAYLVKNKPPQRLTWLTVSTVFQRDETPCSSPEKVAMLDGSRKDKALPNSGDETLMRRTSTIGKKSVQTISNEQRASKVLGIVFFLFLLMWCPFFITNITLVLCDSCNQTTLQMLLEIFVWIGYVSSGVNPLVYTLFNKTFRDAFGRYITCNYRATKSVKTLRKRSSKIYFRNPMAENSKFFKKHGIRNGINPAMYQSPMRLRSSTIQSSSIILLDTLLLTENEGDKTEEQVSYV

[5] = target: T2, Muscarinic acetylcholine receptor M2 (Homo sapiens, UniProt P08172); assay type: functional, cell-based
T2 sequence (P08172 whole entry): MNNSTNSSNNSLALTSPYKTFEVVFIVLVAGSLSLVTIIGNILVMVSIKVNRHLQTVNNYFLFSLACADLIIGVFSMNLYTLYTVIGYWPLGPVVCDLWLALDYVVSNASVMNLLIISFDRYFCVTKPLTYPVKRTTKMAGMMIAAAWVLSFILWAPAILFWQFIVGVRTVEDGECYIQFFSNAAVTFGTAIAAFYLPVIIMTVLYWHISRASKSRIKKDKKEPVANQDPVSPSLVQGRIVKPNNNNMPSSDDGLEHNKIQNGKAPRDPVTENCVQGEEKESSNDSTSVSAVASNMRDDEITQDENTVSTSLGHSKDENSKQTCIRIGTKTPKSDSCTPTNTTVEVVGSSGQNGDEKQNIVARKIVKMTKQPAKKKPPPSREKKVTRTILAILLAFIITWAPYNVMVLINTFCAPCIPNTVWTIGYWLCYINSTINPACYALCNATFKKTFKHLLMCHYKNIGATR

[6] = target: T3, Prostaglandin G/H synthase 1 (Rattus norvegicus, UniProt Q63921); assay type: functional
T3 sequence (Q63921 whole entry): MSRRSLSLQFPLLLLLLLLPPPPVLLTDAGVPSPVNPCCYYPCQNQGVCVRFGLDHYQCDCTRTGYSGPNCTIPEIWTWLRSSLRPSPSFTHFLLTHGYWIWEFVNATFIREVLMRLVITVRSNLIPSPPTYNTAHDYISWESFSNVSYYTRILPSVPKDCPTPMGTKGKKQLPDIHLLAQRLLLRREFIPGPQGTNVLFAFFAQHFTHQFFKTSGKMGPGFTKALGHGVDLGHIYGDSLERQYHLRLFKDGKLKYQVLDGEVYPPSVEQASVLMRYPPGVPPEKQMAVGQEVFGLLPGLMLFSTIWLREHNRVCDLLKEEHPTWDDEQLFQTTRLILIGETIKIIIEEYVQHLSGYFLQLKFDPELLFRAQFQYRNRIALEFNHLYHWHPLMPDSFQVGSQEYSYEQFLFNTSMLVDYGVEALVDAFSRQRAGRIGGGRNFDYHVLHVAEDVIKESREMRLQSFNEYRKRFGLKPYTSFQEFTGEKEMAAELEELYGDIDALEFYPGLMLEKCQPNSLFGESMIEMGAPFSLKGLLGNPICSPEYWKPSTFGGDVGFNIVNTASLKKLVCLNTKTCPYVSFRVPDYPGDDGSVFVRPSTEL

[7] = target: cGMP-inhibited 3',5'-cyclic phosphodiesterase 3A (Homo sapiens, UniProt Q14432); assay type: functional
Sequence of cGMP-inhibited 3',5'-cyclic phosphodiesterase 3A (Q14432 whole entry): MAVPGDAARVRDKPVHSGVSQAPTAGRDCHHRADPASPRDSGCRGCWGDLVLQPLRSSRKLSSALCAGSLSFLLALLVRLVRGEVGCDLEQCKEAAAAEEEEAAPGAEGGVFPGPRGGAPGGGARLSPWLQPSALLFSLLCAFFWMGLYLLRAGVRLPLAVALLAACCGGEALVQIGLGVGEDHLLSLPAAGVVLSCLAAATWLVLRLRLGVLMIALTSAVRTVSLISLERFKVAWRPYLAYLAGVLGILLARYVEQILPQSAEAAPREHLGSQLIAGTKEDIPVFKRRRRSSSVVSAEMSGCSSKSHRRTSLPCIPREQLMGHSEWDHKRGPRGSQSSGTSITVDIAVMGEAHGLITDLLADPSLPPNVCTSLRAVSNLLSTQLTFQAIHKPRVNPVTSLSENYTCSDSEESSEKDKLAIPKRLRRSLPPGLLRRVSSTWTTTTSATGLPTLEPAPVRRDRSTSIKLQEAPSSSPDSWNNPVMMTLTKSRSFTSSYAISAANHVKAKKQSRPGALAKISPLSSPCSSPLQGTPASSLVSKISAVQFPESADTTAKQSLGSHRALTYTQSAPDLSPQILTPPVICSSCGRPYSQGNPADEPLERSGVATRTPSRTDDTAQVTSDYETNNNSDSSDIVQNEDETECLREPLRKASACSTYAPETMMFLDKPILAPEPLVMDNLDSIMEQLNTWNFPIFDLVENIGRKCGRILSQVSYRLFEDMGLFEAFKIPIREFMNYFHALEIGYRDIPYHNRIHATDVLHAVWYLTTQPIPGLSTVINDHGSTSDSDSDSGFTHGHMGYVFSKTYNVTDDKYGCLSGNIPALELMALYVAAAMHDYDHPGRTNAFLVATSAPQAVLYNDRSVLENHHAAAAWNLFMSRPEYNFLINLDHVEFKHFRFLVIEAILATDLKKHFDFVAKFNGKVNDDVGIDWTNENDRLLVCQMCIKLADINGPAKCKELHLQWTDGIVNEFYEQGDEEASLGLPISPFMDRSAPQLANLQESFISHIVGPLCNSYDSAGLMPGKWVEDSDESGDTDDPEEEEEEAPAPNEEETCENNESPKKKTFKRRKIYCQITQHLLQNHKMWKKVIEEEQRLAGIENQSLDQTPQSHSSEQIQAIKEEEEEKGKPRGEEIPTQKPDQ

Progesterone receptor = target: T4, Progesterone receptor (Homo sapiens, UniProt P06401); assay type: functional
T4 sequence (P06401 whole entry): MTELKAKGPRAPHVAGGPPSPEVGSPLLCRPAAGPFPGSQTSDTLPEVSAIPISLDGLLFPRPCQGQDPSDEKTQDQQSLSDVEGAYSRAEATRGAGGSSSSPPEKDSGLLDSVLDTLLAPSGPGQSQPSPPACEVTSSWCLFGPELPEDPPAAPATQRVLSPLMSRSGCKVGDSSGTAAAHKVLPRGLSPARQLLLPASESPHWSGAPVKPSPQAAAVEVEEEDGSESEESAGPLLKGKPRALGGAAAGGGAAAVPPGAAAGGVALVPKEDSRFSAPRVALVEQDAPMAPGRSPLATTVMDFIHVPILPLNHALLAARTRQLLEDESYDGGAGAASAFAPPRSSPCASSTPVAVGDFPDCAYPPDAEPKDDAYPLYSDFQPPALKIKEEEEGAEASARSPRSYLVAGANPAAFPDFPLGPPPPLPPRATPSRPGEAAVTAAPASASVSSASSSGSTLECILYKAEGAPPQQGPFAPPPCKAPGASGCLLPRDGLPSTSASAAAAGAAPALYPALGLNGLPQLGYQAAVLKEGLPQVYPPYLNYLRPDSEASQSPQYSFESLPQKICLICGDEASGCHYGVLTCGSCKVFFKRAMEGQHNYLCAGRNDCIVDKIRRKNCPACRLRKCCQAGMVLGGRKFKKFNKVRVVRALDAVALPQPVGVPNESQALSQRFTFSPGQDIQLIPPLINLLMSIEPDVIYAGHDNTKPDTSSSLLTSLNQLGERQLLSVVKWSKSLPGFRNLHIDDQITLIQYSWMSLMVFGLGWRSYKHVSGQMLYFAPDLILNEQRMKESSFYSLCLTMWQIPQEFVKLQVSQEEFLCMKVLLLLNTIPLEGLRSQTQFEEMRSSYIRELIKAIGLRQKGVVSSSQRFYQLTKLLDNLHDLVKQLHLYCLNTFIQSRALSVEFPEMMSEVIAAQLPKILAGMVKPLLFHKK

[8] = target: Sodium-dependent serotonin transporter (Homo sapiens, UniProt P31645)
Sequence of Sodium-dependent serotonin transporter (P31645 whole entry): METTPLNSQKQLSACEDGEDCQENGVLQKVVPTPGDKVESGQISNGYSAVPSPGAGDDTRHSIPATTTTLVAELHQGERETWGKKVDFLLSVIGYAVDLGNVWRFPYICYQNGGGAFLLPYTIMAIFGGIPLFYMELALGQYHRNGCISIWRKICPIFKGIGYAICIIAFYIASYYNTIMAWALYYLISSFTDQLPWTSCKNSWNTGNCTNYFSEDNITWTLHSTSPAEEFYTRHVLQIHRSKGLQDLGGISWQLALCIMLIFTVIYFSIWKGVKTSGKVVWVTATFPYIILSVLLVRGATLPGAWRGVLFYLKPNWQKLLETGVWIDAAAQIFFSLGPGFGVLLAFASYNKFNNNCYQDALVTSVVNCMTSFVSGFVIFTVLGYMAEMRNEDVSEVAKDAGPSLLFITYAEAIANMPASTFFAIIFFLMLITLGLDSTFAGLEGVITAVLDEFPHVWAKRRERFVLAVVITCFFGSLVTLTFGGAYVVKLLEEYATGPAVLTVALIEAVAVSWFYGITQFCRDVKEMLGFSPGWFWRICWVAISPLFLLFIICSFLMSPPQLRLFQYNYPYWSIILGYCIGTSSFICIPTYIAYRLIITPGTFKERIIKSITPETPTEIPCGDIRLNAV

[9] = target: 5-hydroxytryptamine receptor 2A (Homo sapiens, UniProt P28223); assay type: functional, cell-based
Sequence of 5-hydroxytryptamine receptor 2A (P28223 whole entry): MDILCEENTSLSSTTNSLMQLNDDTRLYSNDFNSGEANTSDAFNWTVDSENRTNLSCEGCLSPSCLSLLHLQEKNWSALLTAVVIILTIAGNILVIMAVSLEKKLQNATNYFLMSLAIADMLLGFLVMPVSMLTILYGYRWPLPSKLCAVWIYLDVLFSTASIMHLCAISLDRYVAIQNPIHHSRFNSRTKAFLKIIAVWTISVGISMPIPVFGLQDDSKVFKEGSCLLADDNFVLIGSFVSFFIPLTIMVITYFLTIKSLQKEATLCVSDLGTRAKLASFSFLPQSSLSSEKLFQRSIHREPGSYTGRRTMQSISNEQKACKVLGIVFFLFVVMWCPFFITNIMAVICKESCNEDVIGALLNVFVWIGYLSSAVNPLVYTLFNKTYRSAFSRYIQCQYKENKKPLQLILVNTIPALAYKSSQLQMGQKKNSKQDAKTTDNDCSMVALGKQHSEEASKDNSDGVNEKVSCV
Also: assay procedure not described here.

| SMILES | AC50 (Endothelin-1 receptor) [µM] | AC50 [1] [µM] | AC50 [2] [µM] | AC50 (Cannabinoid receptor 1) [µM] | AC50 [3] [µM] | AC50 [4] [µM] | AC50 [5] [µM] | AC50 [6] [µM] | AC50 [7] [µM] | AC50 (Progesterone receptor) [µM] | AC50 [8] [µM] | AC50 [9] [µM] |
| --- | --- | --- | --- | --- | --- | --- | --- | --- | --- | --- | --- | --- |
| CNS(=O)(=O)Cc1ccc2[nH]cc(CCN(C)C)c2c1 | > 30 | > 30 | > 30 | > 30 | > 10 | 13 | > 30 | > 30 | > 30 |  |  |  |
| CC=CC(=O)N(CC)c1ccccc1C |  | > 10 | > 30 | > 30 | > 10 | > 10 | > 10 | > 10 | > 30 | > 10 |  |  |
| NCC[C@H](O)C(=O)N[C@@H]1C[C@H](N)[C@@H](O[C@H]2O[C@H](CN)[C@@H](O)[C@H](O)[C@H]2O)[C@H](O)[C@H]1O[C@H]1O[C@H](CO)[C@@H](O)[C@H](N)[C@H]1O [AMIKACIN] |  | > 10 | > 30 |  | > 10 | > 10 | > 10 | > 10 | > 30 | > 10 |  |  |
| CCOC(=O)OC(C)OC1=C(C(=O)Nc2ccccn2)N(C)S(=O)(=O)c2ccccc21 (configuration not stated) [AMPIROXICAM] | > 30 | > 30 | > 30 | > 30 | > 30 | > 30 | > 30 | > 30 | > 30 | > 30 |  |  |
| COc1ccc2c3c1O[C@H]1[C@@H](O)C=C[C@H]4[C@@H](C2)N(C)CC[C@@]341 [CODEINE] | > 30 | > 10 |  | > 30 | > 30 | > 10 | > 10 | > 30 | 3 |  | > 30 |  |
| C#C[C@]1(O)CC[C@H]2[C@@H]3CCC4=Cc5oncc5C[C@]4(C)[C@H]3CC[C@@]21C [DANAZOL] |  | > 10 | > 30 |  | > 10 | > 10 |  |  |  | 0.019 |  |  |
| Cn1c(=O)c2c(ncn2CC2OCCO2)n(C)c1=O [DOXOFYLLINE] | > 30 | > 30 | > 30 | > 30 | > 30 | > 30 | > 30 | > 30 | > 30 | > 30 |  |  |
| Cc1ccc(S(=O)(=O)NC(=O)NN2CC3CCCC3C2)cc1 (configuration not stated) [GLICLAZIDE] |  | > 10 | > 30 |  | > 10 | > 10 | > 10 | > 10 | > 30 | > 10 |  |  |
| CC(C)Cn1cnc2c(N)nc3ccccc3c21 [IMIQUIMOD] |  | > 10 | > 30 |  | > 30 | 19 | > 10 | > 30 | > 30 | > 10 |  |  |
| Nc1nc(N)nc(-c2cc(Cl)ccc2Cl)n1 [IRSOGLADINE] | > 30 |  |  | > 30 | > 30 | > 30 | > 30 | > 30 | > 30 | > 30 |  |  |
| CNC(C)CCC=C(C)C (configuration not stated) [ISOMETHEPTENE] | > 30 |  |  |  | > 30 |  |  | > 30 |  | > 30 | > 30 |  |
| CC(C)(C)c1cc(C(C)(C)C)c(NC(=O)c2c[nH]c3ccccc3c2=O)cc1O [IVACAFTOR] |  | > 10 | > 30 |  | 11.2 | > 10 |  | > 30 | > 30 |  | > 30 |  |
| Cc1cccc(C(C)c2cnc[nH]2)c1C (configuration not stated) [MEDETOMIDINE] |  | > 10 | > 30 |  | > 30 | > 30 | > 10 | > 30 | > 30 | > 30 |  | > 30 |
| C[C@](N)(Cc1ccc(O)c(O)c1)C(=O)O [METHYLDOPA] |  | > 10 | > 30 |  | > 10 | > 10 | > 10 | > 30 | > 30 | > 30 |  |  |
| O=C(NCCN1CCOCC1)c1ccc(Cl)cc1 [MOCLOBEMIDE] |  | > 10 | > 30 |  | > 10 | > 10 | > 10 | > 10 | > 30 | > 10 |  |  |
| N#Cc1ccc([C@H]2CCc3cncn32)c(F)c1 [OSILODROSTAT] | > 10 | > 10 | > 10 |  | > 10 |  |  |  | > 10 |  |  |  |
| CCCN(CCC)C(=O)C(CCC(=O)O)NC(=O)c1ccccc1 (configuration not stated) [PROGLUMIDE] | > 30 | > 10 | > 30 |  | > 30 | > 10 | > 10 | > 30 | > 30 | > 30 |  |  |
| C[C@]12CC[C@H]3[C@@H](CCC4=CC(=O)CC[C@@]43C)[C@@H]1CC[C@@H]2O [TESTOSTERONE] |  | > 10 | > 30 |  | > 10 | > 10 | > 10 | > 10 | > 30 | 0.092 |  |  |
| CN1C(=O)OC(C)(C)C1=O [TRIMETHADIONE] |  | > 10 | > 30 | > 30 | > 10 | > 10 | > 10 | > 10 | > 30 | > 10 |  |  |
| CC(=O)O[C@H]1C[C@@H]2CC[C@@H]3[C@H](CC[C@@]4(C)[C@H]3C[C@H]([N+]3(C)CCCCC3)[C@@H]4OC(C)=O)[C@@]2(C)C[C@@H]1N1CCCCC1 [VECURONIUM] | > 30 | > 30 | > 30 | > 30 | > 30 | > 30 | > 30 | 14 | > 30 | > 30 |  |  |
